From US20250034139A1, “AMINE COMPOUNDS HAVING ANTI-INFLAMMATORY, ANTIFUNGAL, ANTIPARASITIC, AND ANTICANCER ACTIVITY” (PHARMA CINQ, LLC, priority 2013, published 2025)
In brackets after ≈: the same amount, converted by molar mass.

tested on: Cryptococcus neoformans (serotype A); assay: Example L: Cryptococcus neoformans (serotype A) growth inhibition; type: cell-based; conditions: Cryptococcus neoformans, read-out: IC50, uM (concentration for 50% of inhibition); OD of 26 hour reading, 30° C., XLfit
Procedure: Cryptococcus neoformans (serotype A) were plated in 96 well plates with 144 μl/well of 5×10e5 CFU/ml in YPD growth medium. Diluted compounds were then added to each well with concentration ranged from 0.05 to 10 μM as final concentration in duplicates. The plates were inoculated at 30° C. Two readings of OD at 600 nm were measured after 18 hr and […] treatments.
C12-imidazol had relative weak activity against Cryptococcus serotype A at low concentration. Data plotted was based on 26 hour reading because 18 hour reading was too low.
• 1. Pick a single colony of Cryptococcus from the Sabouraud Dextrose agar plate using the inoculum loop and inoculate into a 125 ml flask containing 25 ml of YPD growth medium • 2. Incubate at 30° C. with shaking at 220 rpm for 24 hours with loosen lid to allow air in and facilitates growth. • 3. Examine an aliquot of the culture under a microscope for yeast cell morphology and lack of bacterial contamination. • 4. Dilute the overnight culture with YPD medium at 1:100 dilution and count the number of cells as 8×10^6 cfu/ml. • 5. Make a final concentration of cells suspension at 5×10^5 cfu/ml in YPD medium after the stock culture had been stored at 4° C. for 3 days. • 6. Plate 144 μl/well of 5×10^5 cfu/ml cell suspension on 96-well plates. Part-II: Cryptococcus Growth Inhibition Testing with Compounds • 1. From 10 mM DMSO stock solutions, make serial dilutions of compounds to 0.0013, 0.0025, 0.0125, 0.025, 0.05, 0.125 and 0.25 mM solution • 2. Add 6 ul each of diluted compound solutions per well in duplicates. The final concentrations were 0, 0.05, 0.1, 0.5, 1.0, 2.0, 5.0 and 10 micromolar. • 3. Incubated all plates at 30° C. overnight with 175 rpm shaking. • 4. Read absorbance at OD600 after 18 and 26 hours for each plate. • 5. Calculated the % inhibition and IC50 of each compound against the untreated cell.

Structure (SMILES)	IC50 [µM]
CCCCCCOc1cccc(CNc2ncnc3ccccc23)c1 [AK, N-[3-(Hexyloxy)benzyl]quinazolin-4-amine]	0.25
CCCCCCOCCCCCCCCNc1ccnc2cc(Cl)ccc12 [AW, 7-Chloro-N-[8-(hexyloxy)octyl]quinolin-4-amine]	1.74
CCCCCCCCCCNc1ccnc2ccccc12 [Compound AG, N-(Decyl)quinolin-4-amine]	2.14
CCCCCCOCCCCCCCCCCNc1ccnc2ccccc12 [Compound AL, N-[10-(Hexyloxy)decyl]quinolin-4-amine]	3.01
CCCCCCOCCCCCCCCNc1ccnc2c(Cl)cccc12 [Compound AX, 8-Chloro-N-[8-(hexyloxy)octyl]quinolin-4-amine]	0.91

same assay, conditions: Cryptococcus neoformans; OD of 26 hour reading, 30° C., XLfit; read-out: MIC, uM (concentration for maximum - 99% of inhibition)

Structure (SMILES)	MIC [µM]
CCCCCCOc1cccc(CNc2ncnc3ccccc23)c1 [AK, N-[3-(Hexyloxy)benzyl]quinazolin-4-amine]	19.5 (≈ 6.54 µg/mL)
CCCCCCOCCCCCCCCNc1ccnc2cc(Cl)ccc12 [AW, 7-Chloro-N-[8-(hexyloxy)octyl]quinolin-4-amine]	13.8 (≈ 5.38 µg/mL)
CCCCCCCCCCNc1ccnc2ccccc12 [Compound AG, N-(Decyl)quinolin-4-amine]	11.4 (≈ 3.23 µg/mL)
CCCCCCOCCCCCCCCCCNc1ccnc2ccccc12 [Compound AL, N-[10-(Hexyloxy)decyl]quinolin-4-amine]	10.5 (≈ 4.03 µg/mL)
CCCCCCOCCCCCCCCNc1ccnc2c(Cl)cccc12 [Compound AX, 8-Chloro-N-[8-(hexyloxy)octyl]quinolin-4-amine]	17.3 (≈ 6.76 µg/mL)

tested on: Trichophyton rubrum strains; assay: Example N: MIC and MFC (CLSI) against Trichophyton rubrum; type: cell-based; conditions: read-out: MIC 100%, Range, incubated for 96 hrs, three clinical strains
Procedure: (§1) The objective of this study was to determine the antifungal activity of eight experimental compounds against a representative panel of fungal isolates, including Candida albicans, C. glabrata, Cryptococcus neoformans, Trichophyton rubrum, Aspergillus fumigatus, and Rhizopus spp. Antifungal activity was measured by minimum inhibitory concentration (MIC) and minimum fungicidal concentration (MFC).
(§2) Three recent clinical strains of each species, taken from the culture collection at the Center for Medical Mycology, Case Western University, were tested.
(§3) Compounds in powder form were dissolved in DMSO. Serial dilutions of each compound were then prepared in RPMI-1640 in a range of […].
(§4) MIC testing was performed according to the CLSI M27-A3 and M38-A2 standards for the susceptibility testing of yeasts and filamentous fungi, respectively (1, 2). Test isolates were subcultured from frozen slants onto potato dextrose agar plates (Trichophyton rubrum was subcultured onto oatmeal plates for conidia production) and checked for purity. Inocula were then prepared in RPMI-1640 (YNB for Cryptococcus) to a concentration of 0.5-2.5×10^3 colony-forming units (CFU)/ml or 0.4-5×10^4 conidia/ml for yeast and filamentous fungi, respectively.
(§5) MFC determinations were performed according to the modifications previously described by Canton et al. and Ghannoum and Isham. (3, 4) Specifically, the total contents of each clear well from the MIC assay were subcultured onto potato dextrose agar. To avoid antifungal carryover, the aliquots were allowed to soak into the agar and then were streaked for isolation once dry, thus removing the cells from the drug source.

Structure (SMILES)	MIC [µg/mL]
CCCCCCOCCCCCCCCNc1ccnc2cc(Cl)ccc12 [AW, 7-Chloro-N-[8-(hexyloxy)octyl]quinolin-4-amine]	1 to 16 (≈ 2.56 to 40.9 µM)
CCCCCCCCCCNc1ccnc2ccccc12 [Compound AG, N-(Decyl)quinolin-4-amine]	0.25 to 2 (≈ 0.879 to 7.03 µM)
CCCCCCOCCCCCCCCCCNc1ccnc2ccccc12 [Compound AL, N-[10-(Hexyloxy)decyl]quinolin-4-amine]	1 to 4 (≈ 2.6 to 10.4 µM)
CCCCCCOCCCCCCCCNc1ccnc2c(Cl)cccc12 [Compound AX, 8-Chloro-N-[8-(hexyloxy)octyl]quinolin-4-amine]	0.25 to 8 (≈ 0.639 to 20.5 µM)

same assay, conditions: three clinical strains

Structure (SMILES)	MFC [µg/mL]
CCCCCCOCCCCCCCCNc1ccnc2cc(Cl)ccc12 [AW, 7-Chloro-N-[8-(hexyloxy)octyl]quinolin-4-amine]	8 to 16 (≈ 20.5 to 40.9 µM)
CCCCCCCCCCNc1ccnc2ccccc12 [Compound AG, N-(Decyl)quinolin-4-amine]	0.5 to 2 (≈ 1.76 to 7.03 µM)
CCCCCCOCCCCCCCCCCNc1ccnc2ccccc12 [Compound AL, N-[10-(Hexyloxy)decyl]quinolin-4-amine]	2 to 4 (≈ 5.2 to 10.4 µM)
CCCCCCOCCCCCCCCNc1ccnc2c(Cl)cccc12 [Compound AX, 8-Chloro-N-[8-(hexyloxy)octyl]quinolin-4-amine]	2 to 8 (≈ 5.12 to 20.5 µM)

tested on: Candida albicans strains; assay: Example N: MIC and MFC (CLSI) against Candida albicans; type: cell-based; conditions: Candida albicans, read-out: MIC 100%, Range; 24 hr, three clinical strains
Procedure: as §1, §2, §3, §4, §5

Structure (SMILES)	MIC [µg/mL]
CCCCCCOCCCCCCCCNc1ccnc2cc(Cl)ccc12 [AW, 7-Chloro-N-[8-(hexyloxy)octyl]quinolin-4-amine]	4 to 8 (≈ 10.2 to 20.5 µM)
CCCCCCCCCCNc1ccnc2ccccc12 [Compound AG, N-(Decyl)quinolin-4-amine]	0.5 to 2 (≈ 1.76 to 7.03 µM)
CCCCCCOCCCCCCCCCCNc1ccnc2ccccc12 [Compound AL, N-[10-(Hexyloxy)decyl]quinolin-4-amine]	2 to 4 (≈ 5.2 to 10.4 µM)
CCCCCCOCCCCCCCCNc1ccnc2c(Cl)cccc12 [Compound AX, 8-Chloro-N-[8-(hexyloxy)octyl]quinolin-4-amine]	0.5 to 4 (≈ 1.28 to 10.2 µM)

same assay, conditions: Candida albicans, read-out: MIC 100%, Range; 48 hr, three clinical strains

Structure (SMILES)	MIC [µg/mL]
CCCCCCOCCCCCCCCNc1ccnc2cc(Cl)ccc12 [AW, 7-Chloro-N-[8-(hexyloxy)octyl]quinolin-4-amine]	8 (≈ 20.5 µM)
CCCCCCCCCCNc1ccnc2ccccc12 [Compound AG, N-(Decyl)quinolin-4-amine]	1 to 4 (≈ 3.52 to 14.1 µM)
CCCCCCOCCCCCCCCCCNc1ccnc2ccccc12 [Compound AL, N-[10-(Hexyloxy)decyl]quinolin-4-amine]	2 to 4 (≈ 5.2 to 10.4 µM)
CCCCCCOCCCCCCCCNc1ccnc2c(Cl)cccc12 [Compound AX, 8-Chloro-N-[8-(hexyloxy)octyl]quinolin-4-amine]	2 to 4 (≈ 5.12 to 10.2 µM)

same assay, conditions: Candida albicans; 48 hr, three clinical strains

Structure (SMILES)	MFC [µg/mL]
CCCCCCOCCCCCCCCNc1ccnc2cc(Cl)ccc12 [AW, 7-Chloro-N-[8-(hexyloxy)octyl]quinolin-4-amine]	8 to 32 (≈ 20.5 to 81.8 µM)
CCCCCCCCCCNc1ccnc2ccccc12 [Compound AG, N-(Decyl)quinolin-4-amine]	2 to 4 (≈ 7.03 to 14.1 µM)
CCCCCCOCCCCCCCCCCNc1ccnc2ccccc12 [Compound AL, N-[10-(Hexyloxy)decyl]quinolin-4-amine]	4 to 8 (≈ 10.4 to 20.8 µM)
CCCCCCOCCCCCCCCNc1ccnc2c(Cl)cccc12 [Compound AX, 8-Chloro-N-[8-(hexyloxy)octyl]quinolin-4-amine]	4 to 32 (≈ 10.2 to 81.8 µM)

tested on: Rhizopus strains; assay: Example N: MIC and MFC (CLSI) against Rhizopus; type: cell-based, Rhizopus spp.; conditions: Rhizopus, 24 h
Procedure: as §1, §2, §3, §4, §5

Structure (SMILES)	MIC50 [µg/mL]
CCCCCCOCCCCCCCCNc1ccnc2cc(Cl)ccc12 [AW, 7-Chloro-N-[8-(hexyloxy)octyl]quinolin-4-amine]	4 (≈ 10.2 µM)
CCCCCCCCCCNc1ccnc2ccccc12 [Compound AG, N-(Decyl)quinolin-4-amine]	1 to 2 (≈ 3.52 to 7.03 µM)
CCCCCCOCCCCCCCCCCNc1ccnc2ccccc12 [Compound AL, N-[10-(Hexyloxy)decyl]quinolin-4-amine]	4 (≈ 10.4 µM)
CCCCCCOCCCCCCCCNc1ccnc2c(Cl)cccc12 [Compound AX, 8-Chloro-N-[8-(hexyloxy)octyl]quinolin-4-amine]	0.5 to 1 (≈ 1.28 to 2.56 µM)

same assay, conditions: Rhizopus, 24 h, read-out: MIC 100%

Structure (SMILES)	MIC [µg/mL]
CCCCCCOCCCCCCCCNc1ccnc2cc(Cl)ccc12 [AW, 7-Chloro-N-[8-(hexyloxy)octyl]quinolin-4-amine]	4 to 8 (≈ 10.2 to 20.5 µM)
CCCCCCCCCCNc1ccnc2ccccc12 [Compound AG, N-(Decyl)quinolin-4-amine]	2 (≈ 7.03 µM)
CCCCCCOCCCCCCCCCCNc1ccnc2ccccc12 [Compound AL, N-[10-(Hexyloxy)decyl]quinolin-4-amine]	4 (≈ 10.4 µM)
CCCCCCOCCCCCCCCNc1ccnc2c(Cl)cccc12 [Compound AX, 8-Chloro-N-[8-(hexyloxy)octyl]quinolin-4-amine]	1 to 2 (≈ 2.56 to 5.12 µM)

same assay, conditions: Rhizopus, 48 h

Structure (SMILES)	MIC50 [µg/mL]
CCCCCCOCCCCCCCCNc1ccnc2cc(Cl)ccc12 [AW, 7-Chloro-N-[8-(hexyloxy)octyl]quinolin-4-amine]	4 to 8 (≈ 10.2 to 20.5 µM)
CCCCCCCCCCNc1ccnc2ccccc12 [Compound AG, N-(Decyl)quinolin-4-amine]	2 to 4 (≈ 7.03 to 14.1 µM)
CCCCCCOCCCCCCCCCCNc1ccnc2ccccc12 [Compound AL, N-[10-(Hexyloxy)decyl]quinolin-4-amine]	4 to 8 (≈ 10.4 to 20.8 µM)
CCCCCCOCCCCCCCCNc1ccnc2c(Cl)cccc12 [Compound AX, 8-Chloro-N-[8-(hexyloxy)octyl]quinolin-4-amine]	1 (≈ 2.56 µM)

same assay, conditions: Rhizopus, 48 h, read-out: MIC 100%

Structure (SMILES)	MIC [µg/mL]
CCCCCCOCCCCCCCCNc1ccnc2cc(Cl)ccc12 [AW, 7-Chloro-N-[8-(hexyloxy)octyl]quinolin-4-amine]	8 (≈ 20.5 µM)
CCCCCCCCCCNc1ccnc2ccccc12 [Compound AG, N-(Decyl)quinolin-4-amine]	2 to 4 (≈ 7.03 to 14.1 µM)
CCCCCCOCCCCCCCCCCNc1ccnc2ccccc12 [Compound AL, N-[10-(Hexyloxy)decyl]quinolin-4-amine]	8 (≈ 20.8 µM)
CCCCCCOCCCCCCCCNc1ccnc2c(Cl)cccc12 [Compound AX, 8-Chloro-N-[8-(hexyloxy)octyl]quinolin-4-amine]	1 to 2 (≈ 2.56 to 5.12 µM)

same assay, conditions: range over Rhizopus strains, in 48 hr

Structure (SMILES)	MFC [µg/mL]
CCCCCCCCCCNc1ccnc2ccccc12 [Compound AG, N-(Decyl)quinolin-4-amine]	4 to 16 (≈ 14.1 to 56.2 µM)
CCCCCCOCCCCCCCCNc1ccnc2c(Cl)cccc12 [Compound AX, 8-Chloro-N-[8-(hexyloxy)octyl]quinolin-4-amine]	> 64
